From patent publication US20240252488A1 (KOREA RESEARCH INSTITUTE OF CHEMICAL TECHNOLOGY, priority 2020, published 2024)

Legend:
FADD−/− Jurkat cells = test: Necroptosis inhibition assay, TNF-α-induced necroptosis (CellTiter-Glo 2.0); assay type: cell-based, human; settings: TNF-α 15 ng/mL; for Necroptosis inhibition assay (Rescue %) 1 μM: compound 1 μM; for Necroptosis inhibition assay (Rescue %) 10 μM: compound 10 μM
Procedure, shortened: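 Necroptosis was triggered by TNF-α at 15 ng/mL final following 30 minutes of compound exposure (0.1, 1 or 10 μM final). Incubation ran 20 to 24 hours at 37° C under 5% CO2; cell ATP was then quantified by luminescence.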

MLKL = target: T1, MLKL (Homo sapiens, UniProt Q8NB16); test: Measurement of binding affinity with MLKL receptor (competitive binding assay, Kd); parameters: made in house; host or cells: HEK 293 cell line (T7 phage in E. coli BL21-derived host is also described)
T1 sequence (Q8NB16 1-471): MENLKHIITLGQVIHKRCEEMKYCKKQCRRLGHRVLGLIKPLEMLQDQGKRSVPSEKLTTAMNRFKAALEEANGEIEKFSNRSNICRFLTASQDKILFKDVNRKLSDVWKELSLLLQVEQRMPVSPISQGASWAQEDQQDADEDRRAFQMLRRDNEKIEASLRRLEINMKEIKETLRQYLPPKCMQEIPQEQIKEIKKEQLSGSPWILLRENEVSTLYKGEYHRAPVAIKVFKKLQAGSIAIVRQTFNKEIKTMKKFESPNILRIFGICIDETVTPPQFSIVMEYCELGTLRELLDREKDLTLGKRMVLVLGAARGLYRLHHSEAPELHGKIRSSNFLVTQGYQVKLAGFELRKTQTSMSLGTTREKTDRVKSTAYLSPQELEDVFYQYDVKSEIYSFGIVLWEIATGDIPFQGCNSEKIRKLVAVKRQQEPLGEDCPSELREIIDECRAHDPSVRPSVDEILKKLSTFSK
Procedure, shortened: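 Kd from an immobilized-ligand competition format: the DNA-tagged kinase from HEK 293 expression is eluted and quantified by qPCR. Compounds added from 111× DMSO stocks, final DMSO 0.9%.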

SMILES | Necroptosis inhibition assay (Rescue %) 1 μM (FADD−/− Jurkat cells) [%] | Kd (MLKL) [nM] | Necroptosis inhibition assay (Rescue %) 10 μM (FADD−/− Jurkat cells) [%]
Nc1ncc(-c2cnn(C3CCN(CCOCCOCCNc4cccc5c4C(=O)N(C4CCC(=O)NC4=O)C5=O)CC3)c2)nc1C(=O)O[C@@H](C(=O)Nc1ccc(F)cc1)c1ccccc1 (stereo partly drawn) [TDH-121, (R)-2-((4-fluorophenyl)amino)-2-oxo-1-phenylethyl 3-amino-6-(1-(1-(2-(2-(2-((2-(2,6-dioxopiperidin-3-yl)-1,3-dioxoisoindolin-4-yl)amino)ethoxy)ethoxy)ethyl)piperidin-4-yl)-1H-pyrazol-4-yl)pyrazine-2-carboxylate] | 2.96 | 4.6 | –
Nc1ncc(-c2cnn(C3CCN(CCOCCOCCNc4ccc5c(c4)C(=O)N(C4CCC(=O)NC4=O)C5=O)CC3)c2)nc1C(=O)O[C@@H](C(=O)Nc1ccc(F)cc1)c1ccccc1 (stereo partly drawn) [TDH-122, (R)-2-((4-fluorophenyl)amino)-2-oxo-1-phenylethyl 3-amino-6-(1-(1-(2-(2-(2-((2-(2,6-dioxopiperidin-3-yl)-1,3-dioxoisoindolin-5-yl)amino)ethoxy)ethoxy)ethyl)piperidin-4-yl)-1H-pyrazol-4-yl)pyrazine-2-carboxylate] | 20.17 | 1.8 | –
Nc1ncc(-c2cnn(C3CCN(C(=O)CCCCCNC(=O)CNc4ccc5c(c4)C(=O)N(C4CCC(=O)NC4=O)C5=O)CC3)c2)nc1C(=O)O[C@@H](C(=O)Nc1ccc(F)cc1)c1ccccc1 (stereo partly drawn) [TDH-123, (R)-2-((4-fluorophenyl)amino)-2-oxo-1-phenylethyl 3-amino-6-(1-(1-(6-(2-((2-(2,6-dioxopiperidin-3-yl)-1,3-dioxoisoindolin-5-yl)amino)acetamido)hexanoyl)piperidin-4-yl)-1H-pyrazol-4-yl)pyrazine-2-carboxylate] | 8.69 | 0.89 | 8.92
Nc1ncc(-c2cnn(C3CCN(CCCCCCCCCCNc4ccc5c(c4)C(=O)N(C4CCC(=O)NC4=O)C5=O)CC3)c2)nc1C(=O)O[C@@H](C(=O)Nc1ccc(F)cc1)c1ccccc1 (stereo partly drawn) [TDH-160, (R)-2-((4-fluorophenyl)amino)-2-oxo-1-phenylethyl 3-amino-6-(1-(1-(10-((2-(2,6-dioxopiperidin-3-yl)-1,3-dioxoisoindolin-5-yl)amino)decyl)piperidin-4-yl)-1H-pyrazol-4-yl)pyrazine-2-carboxylate] | 3.59 | 9.4 | –
Nc1ncc(-c2cnn(C3CCN(CCCCCCCCCCNC(=O)CNc4cccc5c4C(=O)N(C4CCC(=O)NC4=O)C5=O)CC3)c2)nc1C(=O)O[C@@H](C(=O)Nc1ccc(F)cc1)c1ccccc1 (stereo partly drawn) [TDH-161, (R)-2-((4-fluorophenyl)amino)-2-oxo-1-phenylethyl 3-amino-6-(1-(1-(10-(2-((2-(2,6-dioxopiperidin-3-yl)-1,3-dioxoisoindolin-4-yl)amino)acetamido)decyl)piperidin-4-yl)-1H-pyrazol-4-yl)pyrazine-2-carboxylate] | 25.81 | 29 | 35.81
Nc1ncc(-c2cnn(C3CCN(CCCCCCCCCCNC(=O)CNc4ccc5c(c4)C(=O)N(C4CCC(=O)NC4=O)C5=O)CC3)c2)nc1C(=O)O[C@@H](C(=O)Nc1ccc(F)cc1)c1ccccc1 (stereo partly drawn) [TDH-162, (R)-2-((4-fluorophenyl)amino)-2-oxo-1-phenylethyl 3-amino-6-(1-(1-(10-(2-((2-(2,6-dioxopiperidin-3-yl)-1,3-dioxoisoindolin-5-yl)amino)acetamido)decyl)piperidin-4-yl)-1H-pyrazol-4-yl)pyrazine-2-carboxylate] | 36.55 | 11 | 26.25
Nc1ncc(-c2cnn(C3CCN(CCCCCCCCCCNC(=O)COc4cccc5c4C(=O)N(C4CCC(=O)NC4=O)C5=O)CC3)c2)nc1C(=O)O[C@@H](C(=O)Nc1ccc(F)cc1)c1ccccc1 (stereo partly drawn) [TDH-163, (R)-2-((4-fluorophenyl)amino)-2-oxo-1-phenylethyl 3-amino-6-(1-(1-(10-(2-((2-(2,6-dioxopiperidin-3-yl)-1,3-dioxoisoindolin-4-yl)oxy)acetamido)decyl)piperidin-4-yl)-1H-pyrazol-4-yl)pyrazine-2-carboxylate] | 30.03 | 45 | 28.56
Nc1ncc(-c2cnn(C3CCN(C(=O)COCCOCCNC(=O)C4CN(c5cccc6c5C(=O)N(C5CCC(=O)NC5=O)C6=O)C4)CC3)c2)nc1C(=O)O[C@@H](C(=O)Nc1ccc(F)cc1)c1ccccc1 (stereo partly drawn) [TDH-192, (R)-2-((4-fluorophenyl)amino)-2-oxo-1-phenylethyl 3-amino-6-(1-(1-(2-(2-(2-(1-(2-(2,6-dioxopiperidin-3-yl)-1,3-dioxoisoindolin-4-yl)azetidine-3-carboxamido)ethoxy)ethoxy)acetyl)piperidin-4-yl)-1H-pyrazol-4-yl)pyrazine-2-carboxylate] | 50.37 | 6.1 | 45.32
Nc1ncc(-c2cnn(C3CCN(CC4CCN(c5cccc6c5C(=O)N(C5CCC(=O)NC5=O)C6=O)CC4)CC3)c2)nc1C(=O)N[C@@H](C(=O)Nc1ccc(F)cc1)c1ccccc1 (stereo partly drawn) [TDH-208, 3-amino-6-(1-(1-((1-(2-(2,6-dioxopiperidin-3-yl)-1,3-dioxoisoindolin-4-yl)piperidin-4-yl)methyl)piperidin-4-yl)-1H-pyrazol-4-yl)-N-((R)-2-((4-fluorophenyl)amino)-2-oxo-1-phenylethyl)pyrazine-2-carboxamide] | – | 350 | 15.28
Nc1ncc(-c2cnn(C3CCN(CC4CCN(C(=O)C5CCN(c6ccc7c(c6)C(=O)N(C6CCC(=O)NC6=O)C7=O)CC5)CC4)CC3)c2)nc1C(=O)N[C@@H](C(=O)Nc1ccc(F)cc1)c1ccccc1 (stereo partly drawn) [TDH-210, 3-amino-6-(1-(1-((1-(1-(2-(2,6-dioxopiperidin-3-yl)-1,3-dioxoisoindolin-5-yl)piperidine-4-carbonyl)piperidin-4-yl)methyl)piperidin-4-yl)-1H-pyrazol-4-yl)-N-((R)-2-((4-fluorophenyl)amino)-2-oxo-1-phenylethyl)pyrazine-2-carboxamide] | 7.5 | 300 | 10.08
Cc1ncsc1-c1ccc(CNC(=O)[C@@H]2C[C@@H](O)CN2C(=O)[C@@H](NC(=O)CCC(=O)N2CCC(CN3CCC(n4cc(-c5cnc(N)c(C(=O)O[C@@H](C(=O)Nc6ccc(F)cc6)c6ccccc6)n5)cn4)CC3)CC2)C(C)(C)C)cc1 [TDH-212, (R)-2-((4-fluorophenyl)amino)-2-oxo-1-phenylethyl 3-amino-6-(1-(1-((1-(4-(((S)-1-((2S,4R)-4-hydroxy-2-((4-(4-methylthiazol-5-yl)benzyl)carbamoyl)pyrrolidin-1-yl)-3,3-dimethyl-1-oxobutan-2-yl)amino)-4-oxobutanoyl)piperidin-4-yl)methyl)piperidin-4-yl)-1H-pyrazol-4-yl)pyrazine-2-carboxylate] | 24.34 | 11 | 49.14
Nc1ncc(-c2cnn(C3CCN(CCOCCOCCNC(=O)C4CCN(c5ccc6c(c5)C(=O)N(C5CCC(=O)NC5=O)C6=O)CC4)CC3)c2)nc1C(=O)N[C@@H](C(=O)Nc1ccc(F)cc1)c1ccccc1 (stereo partly drawn) [TDH-214, 3-amino-6-(1-(1-(2-(2-(2-(1-(2-(2,6-dioxopiperidin-3-yl)-1,3-dioxoisoindolin-5-yl)piperidine-4-carboxamido)ethoxy)ethoxy)ethyl)piperidin-4-yl)-1H-pyrazol-4-yl)-N-((R)-2-((4-fluorophenyl)amino)-2-oxo-1-phenylethyl)pyrazine-2-carboxamide] | 26.74 | 180 | 48.41
Nc1ncc(-c2cnn(C3CCN(CCOCCOCCNc4cccc5c4C(=O)N(C4CCC(=O)NC4=O)C5=O)CC3)c2)nc1C(=O)N[C@@H](C(=O)Nc1ccc(F)cc1)c1ccccc1 (stereo partly drawn) [TDH-215, 3-amino-6-(1-(1-(2-(2-(2-((2-(2,6-dioxopiperidin-3-yl)-1,3-dioxoisoindolin-4-yl)amino)ethoxy)ethoxy)ethyl)piperidin-4-yl)-1H-pyrazol-4-yl)-N-((R)-2-((4-fluorophenyl)amino)-2-oxo-1-phenylethyl)pyrazine-2-carboxamide] | 15.33 | 91 | 21.83
Nc1ncc(-c2cnn(C3CCN(CCOCCOCCNc4ccc5c(c4)C(=O)N(C4CCC(=O)NC4=O)C5=O)CC3)c2)nc1C(=O)N[C@@H](C(=O)Nc1ccc(F)cc1)c1ccccc1 (stereo partly drawn) [TDH-216, 3-amino-6-(1-(1-(2-(2-(2-((2-(2,6-dioxopiperidin-3-yl)-1,3-dioxoisoindolin-5-yl)amino)ethoxy)ethoxy)ethyl)piperidin-4-yl)-1H-pyrazol-4-yl)-N-((R)-2-((4-fluorophenyl)amino)-2-oxo-1-phenylethyl)pyrazine-2-carboxamide] | 21.7 | 43 | 38.63
